In the CheMixHub viscosity set:

Experiment: xn = mol fraction of the nth substance listed

CC12CC3CC(C1)CC(C)(C3)C2 + CCCCCCCCCCC
viscosity [mPa·s], 100 kPa
Conditions | x1 = 0.1005 | x1 = 0.2002 | x1 = 0.2999 | x1 = 0.4004 | x1 = 0.4999 | x1 = 0.5996 | x1 = 0.7003 | x1 = 0.8 | x1 = 0.8999
293.15 K | 1.278 | 1.376 | 1.491 | 1.628 | 1.805 | 2.024 | 2.319 | 2.683 | 3.141
298.15 K | 1.173 | 1.273 | 1.385 | 1.492 | 1.639 | 1.831 | 2.087 | 2.418 | 2.813
303.15 K | 1.083 | 1.162 | 1.25 | 1.37 | 1.501 | 1.676 | 1.901 | 2.19 | 2.531
308.15 K | 1.003 | 1.071 | 1.153 | 1.259 | 1.376 | 1.53 | 1.735 | 1.98 | 2.299
313.15 K | 0.936 | 0.998 | 1.074 | 1.166 | 1.272 | 1.409 | 1.589 | 1.817 | 2.083
318.15 K | 0.872 | 0.939 | 1.006 | 1.084 | 1.172 | 1.297 | 1.461 | 1.665 | 1.911
323.15 K | 0.815 | 0.871 | 0.94 | 1.008 | 1.097 | 1.207 | 1.348 | 1.532 | 1.744

C=Cc1ccccc1 + CCCCCCCCCCCC
viscosity [mPa·s], 101.33 kPa
Conditions | x1 = 0.0973 | x1 = 0.2027 | x1 = 0.2991 | x1 = 0.4009 | x1 = 0.5183 | x1 = 0.5987 | x1 = 0.699 | x1 = 0.8005 | x1 = 0.8996
298.15 K | 1.243 | 1.143 | 1.062 | 0.99 | 0.909 | 0.866 | 0.822 | 0.774 | 0.739
303.15 K | 1.151 | 1.051 | 0.985 | 0.92 | 0.847 | 0.81 | 0.769 | 0.722 | 0.688
308.15 K | 1.059 | 0.98 | 0.915 | 0.854 | 0.791 | 0.76 | 0.724 | 0.691 | 0.656

CCCCCCCCO + CCCCCCCCCCCC
298.15 K, 101 kPa
Conditions | viscosity [mPa·s]
x2 = 0.0554 | 6.58
x2 = 0.0999 | 6
x2 = 0.1554 | 5.3
x2 = 0.1998 | 4.78
x2 = 0.2555 | 4.16
x2 = 0.2998 | 3.71
x2 = 0.3554 | 3.19
x2 = 0.3998 | 2.81
x2 = 0.4554 | 2.39
x2 = 0.4999 | 2.1
x2 = 0.5555 | 1.78
x2 = 0.5998 | 1.57
x2 = 0.6555 | 1.35
x2 = 0.6998 | 1.22
x2 = 0.7554 | 1.1
x2 = 0.7998 | 1.04
x2 = 0.8555 | 1
x2 = 0.8999 | 1
x2 = 0.9555 | 1.04

BrC(Br)Br + CCCCCCCCCO
viscosity [mPa·s], 101.3 kPa
Conditions | x1 = 0.105 | x1 = 0.299 | x1 = 0.404 | x1 = 0.504 | x1 = 0.604 | x1 = 0.704 | x1 = 0.802 | x1 = 0.903
298.15 K | 7.847 | 5.743 | 5.079 | 4.228 | 3.571 | 2.984 | 2.492 | 2.12
303.15 K | 6.517 | 4.87 | 4.38 | 3.693 | 3.151 | 2.669 | 2.266 | 1.963
308.15 K | 5.421 | 4.144 | 3.777 | 3.24 | 2.802 | 2.399 | 2.065 | 1.818

BrC(Br)Br + CCCCCCCO
viscosity [mPa·s], 101.3 kPa
Conditions | x1 = 0.102 | x1 = 0.204 | x1 = 0.301 | x1 = 0.405 | x1 = 0.503 | x1 = 0.597 | x1 = 0.699 | x1 = 0.801 | x1 = 0.901
298.15 K | 5.359 | 4.647 | 4.131 | 3.544 | 3.133 | 2.755 | 2.44 | 2.17 | 1.982
303.15 K | 4.524 | 3.988 | 3.547 | 3.093 | 2.773 | 2.457 | 2.199 | 1.992 | 1.844
308.15 K | 3.863 | 3.422 | 3.084 | 2.712 | 2.461 | 2.205 | 1.99 | 1.822 | 1.713

CCCCCCCCO + CCCCCCCO
viscosity [mPa·s]
Conditions | 293.15 K | 298.15 K | 308.15 K | 318.15 K
101.33 kPa, x2 = 0.1671 | 8.821 | 7.374 | – | –
101.33 kPa, x2 = 0.3071 | 8.507 | 7.128 | – | –
101.33 kPa, x2 = 0.4819 | 8.113 | 6.847 | – | –
101.33 kPa, x2 = 0.6319 | 7.827 | 6.588 | – | –
101.33 kPa, x2 = 0.6868 | 7.688 | 6.471 | – | –
101.33 kPa, x2 = 0.8784 | 7.302 | 6.161 | – | –
101.8 kPa, x2 = 0.1105 | – | 7.442 | 5.362 | 3.936
101.8 kPa, x2 = 0.3246 | – | 7.122 | 5.139 | 3.78
101.8 kPa, x2 = 0.5285 | – | 6.742 | 4.884 | 3.607
101.8 kPa, x2 = 0.723 | – | 6.415 | 4.676 | 3.463
101.8 kPa, x2 = 0.9101 | – | 6.128 | 4.474 | 3.324

BrC(Br)Br + CCCCCCO
viscosity [mPa·s], 101.3 kPa
Conditions | x1 = 0.097 | x1 = 0.199 | x1 = 0.298 | x1 = 0.403 | x1 = 0.497 | x1 = 0.601 | x1 = 0.701 | x1 = 0.798 | x1 = 0.9
298.15 K | 4.186 | 3.77 | 3.34 | 2.965 | 2.667 | 2.4 | 2.192 | 2.031 | 1.922
303.15 K | 3.573 | 3.237 | 2.907 | 2.611 | 2.37 | 2.156 | 1.988 | 1.866 | 1.784
308.15 K | 3.092 | 2.811 | 2.537 | 2.301 | 2.114 | 1.943 | 1.815 | 1.719 | 1.663
